Results as given in patent US11958828B1, “4,5-bis(4-bromophenyl)-1-hexyl-2-(3-pyridyl)-1H-imidazole as an antimicrobial compound” (KING FAISAL UNIVERSITY, priority 2023, dated 2024).

Assays:
Type in all cases: cell-based
Conditions in all cases: after 10, 20, 40 and 60 min at all dilutions 1:100, 1:200, 1:400, 1:800
[1] = test system: Escherichia coli; test: Antimicrobial testing by agar dilution, Escherichia coli
Experimental: (§1) The antimicrobial properties of the 4,5-bis(4-bromophenyl)-1-hexyl-2-(3-Pyridyl)-1H-imidazole (5) were studied by the method of agar dilution. Test solutions of each compound were prepared in concentration of 1% using dimethylformamide as a solvent then they are diluted in physiological solution to obtain the final experimental dilutions 1:100, 1:200, 1:400, 1:800. The effect of these substances were compared with furacillin in a controllable study. The testing microbes used were gram positive bacteria Staphylococcus aureus, gram negative bacteria Escherichia coli, Pseudomonas aeruginosa and Candida albicans fungi were taken. The experiments used for this survey were meat-pentonlu agar (EPA) for cultivation of bacteria and Saburo environment for fungi. Each experiment used 1 ml of test solution on each plate 500 min. Add 2 drops of emulsified with microbes feel. All experimental samples were taken from the agar after 10, 20, 40, 60 minutes in the environment on the basis of Patrk planted. Bacteria were cultivated at a temperature of 37° C. for 1 day and the mushroom was kept in a thermostat for […] at a temperature of 28° C. in the. Then results were checked.

[2] = test system: Pseudomonas aeruginosa; test: Antimicrobial testing by agar dilution, Pseudomonas aeruginosa
Experimental: as §1

[3] = test system: Candida albicans; test: Antimicrobial testing by agar dilution, Candida albicans
Experimental: as §1

[4] = test system: Staphylococcus aureus; test: Antimicrobial testing by agar dilution, Staphylococcus aureus
Experimental: as §1

Measured: inhibition activity (in words)

CCCCCCn1c(-c2cccnc2)nc(-c2ccc(Br)cc2)c1-c1ccc(Br)cc1 [4,5-bis(4-bromophenyl)-1-hexyl-2-(3-pyridyl)-1H-imidazole]
highest inhibition activity: all assays above
